According to US9708336B2, “Metallo-beta-lactamase inhibitors” (priority 2014, dated 2017):
Where two headings read alike, the source gives them in different places.

What was measured:
VIM-1 = VIM-1 (Pseudomonas aeruginosa (strain ATCC 15692 / DSM 22644 / CIP 104116 / JCM 14847 / LMG 12228 / 1C / PRS 101 / PAO1), UniProt A0A0F7KYQ8); assay: Enzyme activity: determination of IC50, fluorescence assay with CCF2-FA substrate (VIM-1); assay type: biochemical
[1] = tested on: Serratia marcescens expressing IMP-1 (CL5741); assay: Antibiotic potentiation activity: synergistic concentration (MITC95) with imipenem, OD600 growth; assay type: cell-based; settings: for Serratia marcescens expressing IMP-1 (CL5741) MITC95: concentration giving 95% inhibition of bacterial growth
Procedure, shortened: (§1)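 Clinical MBL-producing strains (E. coli NDM-1, S. marcescens IMP-1, K. pneumoniae VIM-1) from overnight plates were diluted 1:100 into 1.1×CAMHB. Compound was tested with imipenem at 4 μg/ml (optionally 1 μg/ml) or without it. After 22–24 h at 35 °C, growth was read as OD600.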

[2] = tested on: Klebsiella pneumoniae expressing VIM-1 (IHMA599644); assay: as above; assay type: cell-based; settings: for Klebsiella pneumoniae expressing VIM-1 (IHMA 599644) MITC95: concentration giving 95% inhibition of bacterial growth
Procedure, shortened: as §1

[3] = tested on: Escherichia coli expressing NDM-1 (CLB30016); assay: as above; assay type: cell-based; settings: for Escherichia coli expressing NDM-1 (CLB 30016) MITC95: concentration giving 95% inhibition of bacterial growth
Procedure, shortened: as §1

IMP-1 = IMP-1 (Serratia marcescens, UniProt P52699); assay: biochemical; assay type: biochemical; settings: read-out: IMP-1 IC50
NDM-1 = NDM-1 (Klebsiella pneumoniae, UniProt C7C422); assay: biochemical; assay type: biochemical; settings: read-out: NDM-1 IC50
[4] = VIM-1 enzyme, CCF2-FA substrate, read-out: VIM-1 IC50
[5] = Serratia marcescens CL5741 (IMP-1), 95% growth inhibition
[6] = Klebsiella pneumoniae IHMA599644 (VIM-1), 95% growth inhibition
[7] = (CLB30016, NDM-1), 95% growth inhibition
[8] = IMP-1 enzyme, CCF2-FA substrate
[9] = NDM-1 enzyme, CCF2-FA substrate
[10] = fluorescence assay with CCF2-FA substrate, read-out: VIM-1 IC50
[11] = CL5741 (IMP-1), 95% inhibition of bacterial growth
[12] = IHMA599644 (VIM-1), 95% inhibition of bacterial growth
[13] = CLB30016 (NDM-1), 95% inhibition of bacterial growth
[14] = fluorescence assay with CCF2-FA substrate
[15] = Serratia marcescens expressing IMP-1 (CL5741), 95% growth inhibition
[16] = Klebsiella pneumoniae expressing VIM-1 (IHMA599644), 95% growth inhibition
[17] = Escherichia coli expressing NDM-1 (CLB30016), 95% growth inhibition
[18] = IMP-1 enzyme, CCF2-FA fluorescence assay
[19] = NDM-1 enzyme, CCF2-FA fluorescence assay
[20] = VIM-1 enzyme, CCF2-FA fluorescence assay, read-out: VIM-1 IC50
[21] = VIM-1 IC50, VIM-1 enzyme, CCF2-FA substrate

Sequence of NDM-1 (C7C422 whole entry, looked up, species assumed): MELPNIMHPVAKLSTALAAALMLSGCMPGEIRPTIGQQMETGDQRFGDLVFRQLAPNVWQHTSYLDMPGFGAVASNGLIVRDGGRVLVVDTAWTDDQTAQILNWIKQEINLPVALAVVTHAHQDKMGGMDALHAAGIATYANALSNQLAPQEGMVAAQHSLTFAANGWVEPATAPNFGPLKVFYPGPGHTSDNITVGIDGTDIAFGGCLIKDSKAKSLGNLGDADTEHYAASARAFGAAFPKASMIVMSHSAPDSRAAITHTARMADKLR
Sequence of IMP-1 (P52699 whole entry, looked up): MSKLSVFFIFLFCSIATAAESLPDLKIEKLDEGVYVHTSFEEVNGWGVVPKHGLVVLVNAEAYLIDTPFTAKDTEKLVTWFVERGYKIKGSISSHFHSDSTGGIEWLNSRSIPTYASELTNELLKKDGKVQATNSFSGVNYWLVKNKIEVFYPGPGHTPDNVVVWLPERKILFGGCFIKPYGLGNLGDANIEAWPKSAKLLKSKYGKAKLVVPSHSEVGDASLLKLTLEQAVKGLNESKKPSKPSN

| Compound | IC50 (VIM-1; [4]) [nM] | Serratia marcescens MITC95 [1, 5] [µM] | Klebsiella pneumoniae MITC95 [2, 6] [µM] | Escherichia coli MITC95 [3, 7] [µM] | IC50 (IMP-1; [8]) [nM] | IC50 (NDM-1; [9]) [nM] | Serratia marcescens MITC95 [1, 15] [µM] | Klebsiella pneumoniae MITC95 [2, 16] [µM] | Escherichia coli MITC95 [3, 17] [µM] | IC50 (IMP-1; [18]) [nM] | IC50 (NDM-1; [19]) [nM] | other results |
| --- | --- | --- | --- | --- | --- | --- | --- | --- | --- | --- | --- | --- |
| Nc1ncc(CCc2ccc(C(F)(F)F)c(S(N)(=O)=O)c2-c2nn[nH]n2)cc1CO [Example 508, 3-(2-(6-Amino-5-(hydroxymethyl)pyridin-3-yl)ethyl)-2-(2H-tetrazol-5-yl)-6-(trifluoromethyl)benzenesulfonamide] | 1.66 | 0.0625 | 3.125 | 0.8359 | 2.37 | 4.55 | – | – | – | – | – | – |
| Nc1nc2c(-c3ccc(CCC4CCC(N)CC4)c(S(N)(=O)=O)c3-c3nn[nH]n3)cccc2s1 (stereo not drawn) [Example 541, 3-(2-Aminobenzo[d]thiazol-4-yl)-6-(2-(4-aminocyclohexyl)ethyl)-2-(2H-tetrazol-5-yl)benzenesulfonamide] | 5.11 | 6.25 | 25 | 3.125 | 7.21 | 0.133 | – | – | – | – | – | – |
| NS(=O)(=O)c1c(C(F)(F)F)ccc(C2CCC3(CCNCC3)CC2)c1-c1nnn[nH]1 [Example 833, 3-(3-azaspiro[5.5]undecan-9-yl)-2-(1H-tetrazol-5-yl)-6-(trifluoromethyl)benzenesulfonamide] | – | – | – | – | – | – | – | – | – | – | – | IC50 (VIM-1; [10]): 3.33 nM; Serratia marcescens MITC95 [1, 11]: 3.125 µM; Klebsiella pneumoniae MITC95 [2, 12]: 12.5 µM; Escherichia coli MITC95 [3, 13]: 1.563 µM; IC50 (IMP-1; [14]): 4.31 nM; IC50 (NDM-1; [14]): 0.74 nM |
| NS(=O)(=O)c1cccc(-c2ccc(CNCC3(O)CCC3)cc2)c1-c1nnn[nH]1 [Example 376, 4′-({[(1-hydroxycyclobutyl)methyl]amino}methyl)-2-(1H-tetrazol-5-yl)biphenyl-3-sulfonamide] | – | – | – | – | – | – | 4.688 | 15.63 | 2.344 | 96.6 | 14.4 | IC50 (VIM-1; VIM-1 IC50, VIM-1 enzyme, CCF2-FA fluorescence assay): 50.4 nM |
| CC(C)(C)c1cccc(S(N)(=O)=O)c1-c1nnn[nH]1 [Example 161, 3-(tert-butyl)-2-(1H-tetrazol-5-yl)benzenesulfonamide] | – | – | – | – | – | – | – | – | – | – | – | IC50 (VIM-1; VIM-1 IC50, fluorescence assay with CCF2-FA substrate): 874 nM; Serratia marcescens expressing IMP-1 (CL5741) MITC95 [1]: 6.25 µM; Klebsiella pneumoniae expressing VIM-1 (IHMA 599644) MITC95 [2]: 150 µM; Escherichia coli expressing NDM-1 (CLB 30016) MITC95 [3]: 1.563 µM; IC50 (IMP-1; [14]): 306 nM; IC50 (NDM-1; [14]): 20.1 nM |
| CC1(O)CCN(c2ccc(C(F)(F)F)c(S(N)(=O)=O)c2-c2nnn[nH]2)CC1 [Example 653, 3-(4-hydroxy-4-methypiperidin-1-yl)-2-(1H-tetrazol-5-yl)-6-(trifluoromethyl)benzenesulfonamide] | 4.5 | 0.3906 | 6.25 | 1.563 | 4.82 | 2.82 | – | – | – | – | – | – |
| NC(=O)c1nccc2cc(-c3cccc(S(N)(=O)=O)c3-c3nn[nH]n3)ccc12 [Example 281, 6-(3-sulfamoyl-2-(2H-tetrazol-5-yl)phenyl)isoquinoline-1-carboxamide] | – | – | – | – | – | – | 3.125 | 12.5 | 0.7813 | 42.9 | 0.342 | IC50 (VIM-1; [20]): 12.2 nM |
| NS(=O)(=O)c1c(CC2CCNCC2)ccc(-c2ccc(C3CN(CCO)C3)cc2)c1-c1nn[nH]n1 [Example 608, 3-[4-[1-(2-hydroxyethyl)azetidin-3-yl]phenyl]-6-(4-piperidylmethyl)-2-(2H-tetrazol-5-yl)benzenesulfonamide] | 45 | 6.25 | 6.25 | 6.25 | 127 | 30.4 | – | – | – | – | – | – |
| NS(=O)(=O)c1c(C(F)(F)F)ccc(-c2cccc3c2CCNC3)c1-c1nn[nH]n1 [Example 517, 3-(1,2,3,4-Tetrahydroisoquinolin-5-yl)-2-(2H-tetrazol-5-yl)-6-(trifluoromethyl)benzenesulfonamide] | 0.937 | 3.125 | 1.563 | 3.125 | 37.2 | 5.88 | – | – | – | – | – | – |
| CN(CCCCN)c1nc2c(-c3cccc(S(N)(=O)=O)c3-c3nnn[nH]3)cccc2s1 [Example 645, 3-[2-[4-aminobutyl(methyl)amino]-1,3-benzothiazol-4-yl]-2-(1H-tetrazol-5-yl)benzenesulfonamide] | – | 100 | 50 | 1.563 | 88.8 | 1.16 | – | – | – | – | – | IC50 (VIM-1; [21]): 5.29 nM |
| NS(=O)(=O)c1nccc(N2CCC(c3cnc4n3CCCC4)CC2)c1-c1nnn[nH]1 [Example 225, 4-[4-(5,6,7,8-tetrahydroimidazo[1,2-a]pyridin-3-yl)piperidin-1-yl]-3-(1H-tetrazol-5-yl)pyridine-2-sulfonamide] | – | – | – | – | – | – | – | – | – | – | – | IC50 (VIM-1; [10]): 226 nM; Serratia marcescens expressing IMP-1 (CL5741) MITC95 [1]: 2.344 µM; Klebsiella pneumoniae expressing VIM-1 (IHMA 599644) MITC95 [2]: 50 µM; Escherichia coli expressing NDM-1 (CLB 30016) MITC95 [3]: 9.375 µM; IC50 (IMP-1; [14]): 76.2 nM; IC50 (NDM-1; [14]): 142 nM |
| NS(=O)(=O)c1c(C(F)(F)F)ccc(N2CCC3(CCNC3)CC2)c1-c1nnn[nH]1 [Example 775, 3-(2,8-diazaspiro[4.5]dec-8-yl)-2-(1H-tetrazol-5-yl)-6-(trifluoromethyl) benzenesulfonamide] | – | – | – | – | – | – | – | – | – | – | – | IC50 (VIM-1; [10]): 5.19 nM; Serratia marcescens MITC95 [1, 11]: 6.25 µM; Klebsiella pneumoniae MITC95 [2, 12]: 12.5 µM; Escherichia coli MITC95 [3, 13]: 3.125 µM; IC50 (IMP-1; [14]): 35.8 nM; IC50 (NDM-1; [14]): 9.04 nM |
| NS(=O)(=O)c1cccc(-c2ccc(CNCCc3ncc[nH]3)cc2)c1-c1nnn[nH]1 [Example 382, 4′-({[2-(1H-imidazol-2-yl)ethyl]amino}methyl)-2-(1H-tetrazol-5-yl)biphenyl-3-sulfonamide] | – | – | – | – | – | – | 3.125 | 50 | 1.563 | 212 | 12.8 | IC50 (VIM-1; [20]): 220 nM |
| NCC[C@H]1CC[C@@H](c2ccc(C(F)(F)F)c(S(N)(=O)=O)c2-c2nnn[nH]2)CC1 [Example 498, 3-(cis 4-(2-aminoethyl)cyclohexyl)-2-(1H-tetrazol-5-yl)-6-(trifluoromethyl)benzenesulfonamide] | – | 0.1953 | 4.688 | 0.3906 | 5.5 | 2.15 | – | – | – | – | – | IC50 (VIM-1; [21]): 6.37 nM |
| NS(=O)(=O)c1cccc(-c2ccc(CNC3CCC(=O)NC3)cc2)c1-c1nnn[nH]1 (stereo not drawn) [Example 375, 4′-{[(6-oxopiperidin-3-yl)amino]methyl}-2-(1H-tetrazol-5-yl)biphenyl-3-sulfonamide] | – | – | – | – | – | – | 3.125 | >200 | 1.563 | 97.6 | 6.13 | IC50 (VIM-1; [20]): 533 nM |
| Nc1n[nH]c2cc(-c3ccc(C(F)(F)F)c(S(N)(=O)=O)c3-c3nnn[nH]3)ccc12 [Example 477, 3-(3-amino-1H-indazol-6-yl)-2-(1H-tetrazol-5-yl)-6-(trifluoromethyl)benzenesulfonamide] | – | – | – | – | – | – | 0.5859 | 6.25 | 0.7813 | 6.38 | 1.01 | IC50 (VIM-1; [20]): 0.722 nM |
| NS(=O)(=O)c1c(CC2CNC2)ccc(-c2ccc(C3CCNCC3)cc2)c1-c1nn[nH]n1 [Example 469, 4-(azetidin-3-ylmethyl)-4′-(piperidin-4-yl)-2-(2H-tetrazol-5-yl)-[1,1′-biphenyl]-3-sulfonamide] | – | – | – | – | – | – | 1.563 | 1.563 | 0.7813 | 29.7 | 10.7 | IC50 (VIM-1; [20]): 7.65 nM |
| NS(=O)(=O)c1c(C(F)(F)F)ccc(C2CCNc3ccccc32)c1-c1nnn[nH]1 (stereo not drawn) [Example 493, 3-(1,2,3,4-Tetrahydroquinolin-4-yl)-2-(1H-tetrazol-5-yl)-6-(trifluoromethyl)benzenesulfonamide] | 0.133 | 0.3906 | 3.125 | 1.563 | 4.5 | 1.69 | – | – | – | – | – | – |
| Cc1ccc(Oc2cccc(S(N)(=O)=O)c2-c2nn[nH]n2)cc1 [Example 179, 2-(2H-tetrazol-5-yl)-3-(p-tolyloxy)benzenesulfonamide] | – | – | – | – | – | – | – | – | – | – | – | IC50 (VIM-1; [10]): 1440 nM; Serratia marcescens expressing IMP-1 (CL5741) MITC95 [1]: 37.5 µM; Klebsiella pneumoniae expressing VIM-1 (IHMA 599644) MITC95 [2]: >200 µM; Escherichia coli expressing NDM-1 (CLB 30016) MITC95 [3]: 3.125 µM; IC50 (IMP-1; [14]): 406 nM; IC50 (NDM-1; [14]): 10.8 nM |
